Activity calls are given as the source filed them.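 The calls were made as follows: active = compounds giving half or more protection of infected cells from virus-caused growth loss, again on retest; inactive = the rest.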 Where a SMILES comes first, the peptide text is derived from it.

Our source for the EC50, IC50 and outcome values is PubChem BioAssay AID179 (DTP/NCI, 2004).

The assay has as its system CEM cells HIV-1 protection, formazan growth assay. Kind of assay: NCI AIDS Antiviral Assay. Conditions: for IC50: measured here: growth of uninfected CEM cells. An outline of the steps:
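Human CEM cells, uninfected and HIV-1-infected, received five drug concentrations, and growth was read by soluble formazan assay. Compounds giving at least 50% protection were retested; reproducible 100% protection defined confirmed active.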

Broadly, the EC50 is the midpoint of the concentration-response curve. For orientation: IC50 means the point on the concentration scale where inhibition reaches its midpoint. Low readings indicate inhibition by little substance, high ones a need for much substance. For `N#Cc1ccc(Nc2nc3nc[nH]c3c(=O)[nH]2)cc1`, the EC50 is above 200 µM and the IC50 is above 200 µM.

For the compound `CC(=O)OCC1(C)C(OC(C)=O)CCC2(C)C(CC(OC(C)=O)C3=CCOC3=O)C(O)(CO)CCC12` (configuration not stated), the outcome was inactive.

As for `O=C1CC(=O)Nc2ccccc2N1`, the EC50 was above 200 µM and the IC50 is above 200 µM.

For the compound `COc1ccc(C2ON(c3cccc(C)n3)CC=C2C)cc1` (configuration not stated), the EC50 was above 45.7 µM and the IC50 was above 45.7 µM.

As to `CC1(C(=O)O)OC12CCCCC2` (configuration not stated), the EC50 was above 200 µM and the IC50 is above 200 µM.

With `CC(=O)OCC1OC(N2C(=O)[C@@H](Oc3ccccc3)[C@H]2/C=C/c2ccccc2)C(OC(C)=O)C(OC(C)=O)C1OC(C)=O` (some centres not stated), the EC50 was above 16.6 µM and the IC50 was above 16.6 µM.

On to `Cn1cc2c(n1)c(N/N=C/c1ccccc1)nn1nnnc21`, for which the EC50 is above 89.1 µM and the half-inhibitory concentration (IC50) is above 89.1 µM.

Take `O=C1c2ccccc2-c2ccccc2C(=O)C1(Br)Br`: the outcome was inactive.

Take `COc1ccc(CCNC(=O)Cc2cc(OC)c(OC)cc2Br)cc1OC`: the EC50 was above 81.3 µM and the IC50 is above 81.3 µM.

Regarding `O=C(Nc1ccc([N+](=O)[O-])cc1C(=O)O)c1ccc([N+](=O)[O-])cc1`, the outcome was inactive.

For the compound `CC(C)[P+](c1ccccc1)(c1ccccc1)c1ccccc1`, the EC50 was above 200 µM and the IC50 worked out at 5.5 µM.

With `Cc1nc(C)c(Cc2ccccc2)o1`, the EC50 is above 200 µM and the half-maximal inhibitory concentration (IC50) is above 200 µM.

For `O=c1ccn([C@@H]2C[C@H](CO)CS(=O)C2)c(=O)[nH]1` (some centres not stated), the EC50 was above 977 µM and the IC50 is above 977 µM.

In the case of `CC1(O)CC(=O)c2c(cc3ccc(-c4c5c(c(O)c6c(O)cccc46)C(=O)CC(C)(O)C5)c(O)c3c2O)C1` (configuration not stated), the EC50 is above 200 µM and the IC50 came to 0.389 µM.

As to `COC(=O)Cc1ccc2c(cnn2-c2ccccc2)c1OC`, the EC50 is above 200 µM and the IC50 was 89.1 µM.

For `COc1ccc2nc3ccc(OC)cc3c(SCC3CO3)c2c1` (configuration not stated), the EC50 is above 200 µM and the IC50 stood at 3.63 µM.

As to `O=c1c2c(c1=O)-c1ccccc1CN2`, the EC50 was above 200 µM and the IC50 was above 200 µM.

Regarding `O=[N+]([O-])c1ccc(C(Nc2ccccc2)P(c2ccccc2)c2ccccc2)cc1` (configuration not stated), the EC50 is above 200 µM and the IC50 came out at 43.7 µM.

`CN(NC(=O)c1ccc(Cl)cc1)C1=NCCCCN1`: the EC50 was above 200 µM and the half-inhibitory concentration (IC50) is above 200 µM.

In the case of `O=C(NC(=O)c1cn(CCNCCO)c(=O)[nH]c1=O)OCc1ccccc1`, the outcome was inactive.

Turning to `COc1ccc(NC(=O)C2=C(SC)C(C#N)C(=O)N=C2N)cc1` (configuration not stated), the EC50 was above 200 µM and the IC50 stood at 44.7 µM.

In the case of `COC(=O)c1ccc(C)cc1CC1Cc2ccc(C)cc2C1=O` (configuration not stated), the EC50 was above 200 µM and the IC50 amounted to 4.79 µM.

Turning to `O=c1[nH]c2cc([N+](=O)[O-])ccc2nc1/C=C(\O)c1ccc([N+](=O)[O-])cc1`, the EC50 was above 200 µM and the IC50 came to 186 µM.

With `CS(=O)(=O)NNS(=O)(=O)c1ccc(Cl)cc1`, the EC50 is above 126 µM and the IC50 was above 126 µM.

As for `CCSc1cccc(C(=O)O)c1`, the EC50 was above 513 µM and the IC50 was above 513 µM.

As to `Cc1ccc2c(c1)C/C(=C\c1ccccc1C(=O)O)C2=O`, the EC50 is above 200 µM and the IC50 stood at 102 µM.

As to `CCCCCCCCCCCCSSSCCCCCCCCCCCC`, the EC50 was above 200 µM and the IC50 was above 200 µM.

With `Cc1ccccc1NC(=O)/C(=N/NC(=O)CC#N)C1C(=O)N(c2ccccc2)N=C1N` (configuration not stated), the EC50 was above 12.6 µM and the IC50 is above 12.6 µM.

With `CCOC(=O)c1nc2ccc(C(F)(F)F)cc2nc1Oc1cc(OC)c(OC)c(OC)c1`, the EC50 was above 100 µM and the IC50 is above 100 µM.

Turning to `CCOC(=O)CC(NC(=O)c1[nH]cnc1/N=N/N(C)C)C(=O)OCC` (configuration not stated), the EC50 was above 708 µM and the IC50 is above 708 µM.

On to `O=c1c2n[nH]nc2nc2n1CC(c1ccccc1)S2` (configuration not stated), for which the result was inactive.

In the case of `COC1/C=C/O[C@@]2(C)Oc3c(C)c(O)c4c(O)c(cc(O)c4c3C2=O)NC(=O)/C(C)=C\C=C\[C@H](C)C(O)[C@@H](C)[C@@H](O)[C@@H](C)[C@H](OC(C)=O)[C@@H]1C` (some centres not stated), the EC50 is above 174 µM and the IC50 is 8.13 µM.

`O=C(CCC1C(=O)NC(=S)NC1=O)c1ccc2ccccc2c1`: the EC50 is above 110 µM and the 50% inhibitory concentration (IC50) is above 110 µM.

For `CC(C)(C)C(=O)/C=C(\OB(F)F)C(C)(C)C`, the EC50 is above 200 µM and the IC50 was above 200 µM.

Consider `O=C(NS(=O)(=O)Nc1ccccc1)OCc1ccccc1`, for which the EC50 is above 200 µM and the IC50 was above 200 µM.

For the compound `CCOP(=O)(OCC)C(C#N)Cc1ccco1` (configuration not stated), the EC50 is 41.7 µM and the IC50 was above 200 µM.

For the compound `O=C(ON(Cc1ccccc1)C(=O)C1C=CC=C1)C1=CCC=C1`, the EC50 is above 17 µM and the IC50 is above 17 µM.

In the case of `O=c1cc(-c2ccccc2)oc2cc(O)cc(O)c12`, the EC50 is above 87.1 µM and the IC50 is 38 µM.

On to `COc1ccc2nc3ccccc3c(NCCC[N+](C)(C)[O-])c2c1[N+](=O)[O-]`, for which the EC50 was above 200 µM and the IC50 is 14.1 µM.

Consider `CN(C(=O)C12C3C4C5C3C1(C(=O)C13C6C7C8C6C1C8C73)C5C42)C(C)(C)C` (configuration not stated), for which the EC50 was above 135 µM and the IC50 was above 135 µM.

As to `CC1=Nc2ccccc2C1C(Cc1ccccc1N)c1c(C)[nH]c2ccccc12` (configuration not stated), the result was inactive.

Turning to `Cc1ccc2nnn3c(=N)nc(N)nc3c2c1`, the EC50 is above 79.4 µM and the IC50 was above 79.4 µM.

For `CC1CC(=O)Nc2ccccc2N1C(=O)C1CC1` (configuration not stated), the EC50 was above 200 µM and the IC50 was above 200 µM.

Regarding `CC(C)(C)OC(=O)N/N=C(/N)Cc1ccc(Cl)cc1`, the EC50 is above 200 µM and the IC50 was determined as 162 µM.

As to `CC(=O)n1nc(-c2[nH]c(C)c(-c3nn(C(C)=O)c(=S)o3)c2C)oc1=S`, the EC50 was above 50.1 µM and the IC50 was above 50.1 µM.

Take `CC(C)CCCC(C)[C@H]1CC[C@H]2[C@@H]3CC[C@H]4C[C@@H](CCC=C(c5cc(Cl)c(O)c(C(=O)OCc6ccccc6)c5)c5cc(Cl)c(O)c(C(=O)OCc6ccccc6)c5)CC[C@]4(C)[C@H]3CC[C@]12C` (some centres not stated): the outcome was inactive.

On to `CN1C(=O)C(O)C[C@@H]1c1ccccc1` (some centres not stated), for which the result was inactive.

Regarding `C[C@H](CCC(=O)O)[C@H]1CC[C@H]2[C@@H]3[C@H](O)C[C@@H]4C[C@H](O)CC[C@]4(C)[C@H]3CC[C@]12C`, the EC50 is above 200 µM and the IC50 was found to be 39.8 µM.

As to `CCN(CC)CCNC(=O)C(O)(c1ccccc1)c1ccccc1`, the EC50 is above 200 µM and the IC50 is above 200 µM.

In the case of `COc1ccc(NC2Oc3cc4c(cc3C(c3cc(OC)c(OC)c(OC)c3)C2C)OCO4)cc1` (configuration not stated), the EC50 is above 20 µM and the half-inhibitory concentration (IC50) was 0.398 µM.

In the case of `Cc1ccc2cc([N+](=O)[O-])c3ccc(C)nc3c2n1`, the EC50 is above 200 µM and the IC50 was found to be 3.16 µM.

For the compound `Cc1ccc2c(c1)CNc1ccc(C)cc1CN2`, the outcome was inactive.

For the compound `Cc1nc2ccc(Br)cc2c(=O)n1-c1ccc(N)cc1`, the EC50 is above 200 µM and the IC50 is above 200 µM.

Take `N#Cc1n[nH]n(C2CCCCC2)c1=O`: the EC50 was above 200 µM and the IC50 is above 200 µM.

With `CCCCCCCCCCCCCCCCOCC(COC1OC(CS(=O)(=O)O)C(O)C(O)C1O)OCCCCCCCCCCCCCCCC` (configuration not stated), the EC50 was 100 µM and the 50% inhibitory concentration (IC50) turned out to be 123 µM.

As to `COc1cc(C(=O)O)c(C(=O)c2ccc(C#N)cc2)cc1OC`, the EC50 was above 200 µM and the IC50 was above 200 µM.

Regarding `CCCNc1nc2c(c(=O)n1-c1ccccc1)C=C(C(=O)OC)CCN2S(=O)(=O)c1ccc(C)cc1`, the EC50 is above 14.1 µM and the IC50 is above 14.1 µM.

Regarding `CN(CCC#N)c1ccc(/C=C(\C#N)c2ccc(Cl)cc2)cc1`, the EC50 is above 200 µM and the IC50 amounted to 15.5 µM.

With `C=CC1ON(Cc2ccccc2)CCc2cc(OC)c(OC)cc21` (configuration not stated), the EC50 was above 200 µM and the IC50 turned out to be 40.7 µM.

For the compound `CC(=O)N(C(=O)CC(=O)NN)c1ccc(Cl)cc1`, the result was inactive.

For `CC(C)CC(NC(=O)C(Cc1ccc(O)cc1)NC(=O)C(C)N)C(=O)NCC(=O)NC(CCCCN)C(=O)NC(CCCCN)C(=O)NC(C(=O)NC(C)C(=O)NC(C(=O)NC(CC(N)=O)C(=O)O)C(C)O)C(C)C` (configuration not stated) (H-AYLGKKVATN-OH; configuration not given here), the outcome was inactive.

For the compound `O=C(CC1Sc2ccccc2NC1=O)Nc1ccccc1[N+](=O)[O-]` (configuration not stated), the EC50 was above 724 µM and the IC50 was 70.8 µM.

Consider `Oc1c(CN2CCCC2)ccc2ccccc12`, for which the EC50 was above 200 µM and the IC50 is above 200 µM.

Take `COc1ccc(C(C)NNC(=O)c2ccncc2)cc1OC` (configuration not stated): the EC50 was above 200 µM and the IC50 worked out at 30.2 µM.

As to `O=C(Cc1nc2ccccc2s1)C(=O)Nc1cccc(Cl)c1`, the outcome was inactive.

On to `COc1ccc(/C=C2\CCS(=O)(=O)c3ccccc3C2=O)cc1OC`, for which the EC50 is above 100 µM and the 50% inhibitory concentration (IC50) was determined as 11.2 µM.

As for `O=S(=O)(CSc1ccccc1)c1ccccc1`, the EC50 was above 490 µM and the 50% inhibitory concentration (IC50) came out at 288 µM.

Regarding `O=C1OC(OC2OC(=O)c3ccccc32)c2ccccc21` (configuration not stated), the EC50 is above 200 µM and the IC50 is above 200 µM.

Take `NC(=S)NNC(=O)/C(=C/c1ccc(/C=C(\NC(=O)c2ccccc2)C(=O)NNC(N)=S)cc1)NC(=O)c1ccccc1`: the EC50 is above 8.71 µM and the IC50 was above 8.71 µM.

With `NC(N)=NCCCC(NCc1c2ccccc2nc2ccccc12)C(=O)O` (configuration not stated), the result was inactive.

`Cn1c(=O)nc2n(-c3ccc(F)cc3)c3ccccc3nc-2c1=O`: the result was inactive.

For the compound `CC1(C)N=C(c2ccccc2)C2(c3ccccc3)N1C2(C)C` (configuration not stated), the EC50 was above 234 µM and the IC50 was 224 µM.

Take `CC1=N/C(=C\c2cccc3ccccc23)C(=O)O1`: the EC50 was above 11.5 µM and the IC50 is above 11.5 µM.
